According to patent US9957278B2, “Furopyridine compounds for the treatment of hepatitis C” (BRISTOL-MYERS SQUIBB COMPANY, priority 2014, dated 2018):
Like-named read-outs stand apart in the source and are kept apart here.

System: genotype 1b (Con-1) HCV replicon
Assay: HCV Replicon Luciferase Assay (genotype 1b)
Assay type: cell-based
Conditions: Hepatitis C virus, 72 h, genotype 1b replicon in Huh-7 cells, Renilla luciferase, 3 days incubation
Procedure: The cell lines used to evaluate compounds consist of a human hepatocyte derived cell line (Huh-7) that constitutively expresses a genotype 1b (Con-1) HCV replicon or a genotype 1b (Con-1) HCV replicon with an asparagine replacing the cysteine at amino acid 316, or a genotype 2a (JFH-1) replicon, containing a Renilla luciferase reporter gene. These cells were maintained in Dulbecco's modified Eagle medium (DMEM) containing 10% FBS, 100 U/mL penicillin/streptomycin and 1.0 mg/mL G418.
To evaluate compound efficacy, titrated compounds were transferred to sterile 384-well tissue culture treated plates, and the plates were seeded with HCV replicon cells (50 μL at a density of 2.4×10^3 cells/well) in DMEM containing 4% FBS (final DMSO concentration at 0.5%). After 3 days incubation at 37° C., cells were analyzed for Renilla Luciferase activity using the EnduRen substrate (Promega cat #E6485) according to the manufacturer's directions. Briefly, the EnduRen substrate was diluted in DMEM and then added to the plates to a final concentration of 7.5 μM. The plates were incubated for at least 1 h at 37° C. then read on a Viewlux Imager (PerkinElmer) using a luminescence program. The 50% effective concentration (EC50) was calculated using the four-parameter logistic formula noted above.
Compound EC50 data is expressed as A: <100 nM; B=100-1000 nM; C>1000 nM).

Compound	EC50 (read-out: EC50 1b (class))	EC50 (read-out: EC50 (uM) 1b)
C#CC(C)(C)NC(=O)c1cccc(-c2cc3c(C(=O)NC)c(-c4ccc(F)cc4)oc3nc2NCC(F)(F)C(F)(F)F)c1 [Compound 40005]	0.1 to 1 µM	
CNC(=O)c1c(-c2ccc(F)cc2)oc2nc(Cl)c(-c3ccc(OC)c(C(=O)NCC(F)(F)C(F)(F)C(F)(F)F)c3)cc12 [Compound 10001]	0.1 to 1 µM	0.149 µM
CNC(=O)c1c(-c2ccc(F)cc2)oc2nc(CCC(F)(F)F)c(-c3cccc(C(=O)N[C@@H](COC)C4CC4)c3)cc12 [Compound 20014]	< 0.1 µM	
CNC(=O)c1c(-c2ccc(F)cc2)oc2nc(CCC(F)(F)F)c(-c3cccc(C(=O)NC(c4ccccc4)C4CC4)c3)cc12 (stereo not drawn) [Compound 20017]	< 0.1 µM	
C#CC(C)(C)NC(=O)c1cc(-c2cc3c(C(=O)NC)c(-c4ccc(F)cc4)oc3nc2NCC(F)(F)C(F)(F)F)ccc1OC [Compound 41004]	< 0.1 µM	0.0173 µM
C#CC(C)(C)NC(=O)c1cc(-c2cc3c(C(=O)NC)c(-c4ccc(F)cc4)oc3nc2CCC(F)(F)F)ccc1OC [Compound 21001]	< 0.1 µM	
CNC(=O)c1c(-c2ccc(F)cc2)oc2nc(NCC(F)(F)C(F)(F)F)c(-c3ccc(OC)c(C(=O)NC(CF)(CF)CF)c3)cc12 [Compound 41003]	< 0.1 µM	0.0519 µM
[2H]C([2H])([2H])C(NC(=O)c1cccc(-c2cc3c(C(=O)NC)c(-c4ccc(F)cc4)oc3nc2NCC(F)(F)C(F)(F)F)c1)(C([2H])([2H])[2H])C([2H])([2H])[2H] [Compound 40003]	0.1 to 1 µM	
CNC(=O)c1c(-c2ccc(F)cc2)oc2nc(CCC(F)(F)F)c(-c3cccc(C(=O)NC(C)(C)C(=O)OC)c3)cc12 [Compound 20023]	< 0.1 µM	
CNC(=O)c1c(-c2ccc(F)cc2)oc2nc(CCC(F)(F)F)c(-c3cccc(C(=O)NCC(C)(C)C)c3)cc12 [Compound 20030]	< 0.1 µM	
CNC(=O)c1c(-c2ccc(F)cc2)oc2nc(CCC(F)(F)F)c(-c3cccc(C(=O)N[C@H](C)C4CC4)c3)cc12 [Compound 20012]	< 0.1 µM	
CNC(=O)c1c(-c2ccc(F)cc2)oc2nc(CCC(F)(F)F)c(-c3ccc(F)c(C(=O)NC(C)C(F)(F)F)c3)cc12 (stereo not drawn) [Compound 22001]	< 0.1 µM	0.0108 µM
CNC(=O)c1c(-c2ccc(F)cc2)oc2nc(NCC(F)(F)F)c(-c3cccc(C(=O)NCC(C)(C)C)c3)cc12 [Compound 30011]	< 0.1 µM	
CCC(NC(=O)c1cccc(-c2cc3c(C(=O)NC)c(-c4ccc(F)cc4)oc3nc2NCC(F)(F)F)c1)C(F)(F)F (stereo not drawn) [Compound 30005]	< 0.1 µM	
CNC(=O)c1c(-c2ccc(F)cc2)oc2nc(NCC(F)(F)F)c(-c3cccc(C(=O)NC(C)(C)c4ccccc4)c3)cc12 [Compound 30015]	< 0.1 µM	0.0067 µM
CNC(=O)c1c(-c2ccc(F)cc2)oc2nc(NCC(F)(F)F)c(-c3cccc(C(=O)NC(C)(C)CO)c3)cc12 [Compound 30010]	< 0.1 µM	
CNC(=O)c1c(-c2ccc(F)cc2)oc2nc(CCC(F)(F)F)c(-c3ccc(F)c(C(=O)NC(C)(C)C(F)(F)F)c3)cc12 [Compound 22003]	< 0.1 µM	
C#CC(C)(C)NC(=O)c1cccc(-c2cc3c(C(=O)NC)c(-c4ccc(F)cc4)oc3nc2NCC(F)(F)F)c1 [Compound 30002]	< 0.1 µM	0.0037 µM
CNC(=O)c1c(-c2ccc(F)cc2)oc2nc(CCC(F)(F)F)c(-c3ccc(OC)c(C(=O)NCC(F)(F)C(F)(F)C(F)(F)F)c3)cc12 [Compound 21002]	< 0.1 µM	
CNC(=O)c1c(-c2ccc(F)cc2)oc2nc(CCC(F)(F)F)c(-c3cccc(C(=O)NCC(C)(F)F)c3)cc12 [Compound 20035]	< 0.1 µM	
C#CC(C)(C)NC(=O)c1cc(-c2cc3c(C(=O)NC)c(-c4ccc(F)cc4)oc3nc2Cl)ccc1OC [Compound 10002]	< 0.1 µM	0.0362 µM
CC[C@@H](NC(=O)c1cccc(-c2cc3c(C(=O)NC)c(-c4ccc(F)cc4)oc3nc2CCC(F)(F)F)c1)C1CC1 [Compound 20009]	< 0.1 µM	0.01 µM
CNC(=O)c1c(-c2ccc(F)cc2)oc2nc(NCC(F)(F)F)c(-c3cccc(C(=O)NC(C)(C)C(=O)NC)c3)cc12 [Compound 30013]	< 0.1 µM	
CNC(=O)c1c(-c2ccc(F)cc2)oc2nc(CCC(F)(F)F)c(-c3cccc(C(=O)NC4CCNC4=O)c3)cc12 (stereo not drawn) [Compound 20020]	< 0.1 µM	0.0519 µM
CNC(=O)c1c(-c2ccc(F)cc2)oc2nc(CCC(F)(F)F)c(-c3cccc(C(=O)NC(C)C(F)(F)F)c3)cc12 (stereo not drawn) [Compound 20004]	< 0.1 µM	
CNC(=O)c1c(-c2ccc(F)cc2)oc2nc(NCC(F)(F)C(F)(F)F)c(-c3cccc(C(=O)NCC(C)(C)C)c3)cc12 [Compound 40001]	< 0.1 µM	0.0982 µM

Compound	EC50 (read-out: EC50 1b (class))	EC50 (read-out: EC50 (uM) 1b)
CNC(=O)c1c(-c2ccc(F)cc2)oc2nc(CCC(F)(F)F)c(-c3cccc(C(=O)NCC(F)F)c3)cc12 [Compound 20021]	< 0.1 µM	
CC[C@H](NC(=O)c1cccc(-c2cc3c(C(=O)NC)c(-c4ccc(F)cc4)oc3nc2CCC(F)(F)F)c1)C1CC1 [Compound 20010]	< 0.1 µM	
CCC(NC(=O)c1cc(-c2cc3c(C(=O)NC)c(-c4ccc(F)cc4)oc3nc2CCC(F)(F)F)ccc1F)C(F)(F)F (stereo not drawn) [Compound 22002]	< 0.1 µM	
CNC(=O)c1c(-c2ccc(F)cc2)oc2nc(CCC(F)(F)F)c(-c3cccc(C(=O)N[C@H](COC)C4CC4)c3)cc12 [Compound 20015]	< 0.1 µM	0.0056 µM
CNC(=O)c1c(-c2ccc(F)cc2)oc2nc(NCC(F)(F)C(F)(F)F)c(-c3cccc(C(=O)NC(CF)(CF)CF)c3)cc12 [Compound 40004]	< 0.1 µM	
CNC(=O)c1c(-c2ccc(F)cc2)oc2nc(NCC(F)(F)F)c(-c3cccc(C(=O)N[C@H](CO)c4ccccc4)c3)cc12 [Compound 30016]	< 0.1 µM	
CNC(=O)c1c(-c2ccc(F)cc2)oc2nc(NCC(F)(F)F)c(-c3ccc(OC)c(C(=O)NCC(F)(F)C(F)(F)C(F)(F)F)c3)cc12 [Compound 31001]	< 0.1 µM	0.014 µM
CNC(=O)c1c(-c2ccc(F)cc2)oc2nc(CCC(F)(F)F)c(-c3ccc(OC)c(C(=O)NC(CF)(CF)CF)c3)cc12 [Compound 21003]	< 0.1 µM	
CNC(=O)c1c(-c2ccc(F)cc2)oc2nc(CCC(F)(F)F)c(-c3cccc(C(=O)N[C@@H](CO)C4CC4)c3)cc12 [Compound 20006]	< 0.1 µM	
CNC(=O)c1c(-c2ccc(F)cc2)oc2nc(NCC(F)(F)C(F)(F)F)c(-c3cccc(C(=O)NC(C)(C)C)c3)cc12 [Compound 40002]	< 0.1 µM	
CNC(=O)c1c(-c2ccc(F)cc2)oc2nc(CCC(F)(F)F)c(-c3cccc(C(=O)NC(C)(C)CCO)c3)cc12 [Compound 20036]	< 0.1 µM	
CNC(=O)c1c(-c2ccc(F)cc2)oc2nc(CCC(F)(F)F)c(-c3cccc(C(=O)NC(C)(CO)CO)c3)cc12 [Compound 20027]	< 0.1 µM	
CNC(=O)c1c(-c2ccc(F)cc2)oc2nc(NCCO)c(-c3cccc(C(=O)NC(C)(C)C(F)(F)F)c3)cc12 [Compound 42001]	< 0.1 µM	
CNC(=O)c1c(-c2ccc(F)cc2)oc2nc(CCC(F)(F)F)c(-c3cccc(C(=O)NC(C)(C)C4CC4)c3)cc12 [Compound 20007]	< 0.1 µM	
CNC(=O)c1c(-c2ccc(F)cc2)oc2nc(CCC(F)(F)F)c(-c3cccc(C(=O)NC(C4CC4)C4CC4)c3)cc12 [Compound 20008]	< 0.1 µM	
C#CC(C)(C)NC(=O)c1cccc(-c2cc3c(C(=O)NC)c(-c4ccc(F)cc4)oc3nc2CCC(F)(F)F)c1 [Compound 20003]	< 0.1 µM	0.004 µM
CNC(=O)c1c(-c2ccc(F)cc2)oc2nc(NCC(F)(F)F)c(-c3ccc(OC)c(C(=O)NC(CF)(CF)CF)c3)cc12 [Compound 31002]	< 0.1 µM	
CNC(=O)c1c(-c2ccc(F)cc2)oc2nc(CCC(F)(F)F)c(-c3cccc(C(=O)NC(C)C4CC4)c3)cc12 (stereo not drawn) [Compound 20013]	< 0.1 µM	
CNC(=O)c1c(-c2ccc(F)cc2)oc2nc(CCC(F)(F)F)c(-c3cccc(C(=O)NC4CCOCC4)c3)cc12 [Compound 20031]	< 0.1 µM	0.0136 µM
CNC(=O)c1c(-c2ccc(F)cc2)oc2nc(CCC(F)(F)F)c(-c3cccc(C(=O)NCC(F)(F)C(F)(F)C(F)(F)F)c3)cc12 [Compound 20037]	< 0.1 µM	0.0106 µM
CNC(=O)c1c(-c2ccc(F)cc2)oc2nc(NCC(F)(F)F)c(-c3cccc(C(=O)NC4(C(=O)OC)CC4)c3)cc12 [Compound 30008]	< 0.1 µM	
CNC(=O)c1c(-c2ccc(F)cc2)oc2nc(NCC(F)(F)C(F)(F)F)c(-c3ccc(OC)c(C(=O)NC(C)(C)C)c3)cc12 [Compound 41001]	< 0.1 µM	
CNC(=O)c1c(-c2ccc(F)cc2)oc2nc(CCC(F)(F)F)c(-c3cccc(C(=O)NCC4(COC)CC4)c3)cc12 [Compound 20032]	< 0.1 µM	
CNC(=O)c1c(-c2ccc(F)cc2)oc2nc(NCC(F)(F)F)c(-c3cccc(C(=O)NC(C4CC4)C(F)(F)F)c3)cc12 (stereo not drawn) [Compound 30007]	< 0.1 µM	
CCOC(=O)C(C)(C)NC(=O)c1cccc(-c2cc3c(C(=O)NC)c(-c4ccc(F)cc4)oc3nc2CCC(F)(F)F)c1 [Compound 20029]	< 0.1 µM	
